Source: ChEMBL document CHEMBL3785084, “Rational modification of the lead molecule: Enhancement in the anticancer and dihydrofolate reductase inhibitory activity” (Bioorg Med Chem Lett, 2016)
Calls of active or inactive are those of the source. The calls are words filed in the database; no cut-off is given here.

What was measured:
[1] = Cytotoxicity against human COLO205 cells assessed as cell growth at 10^-5 M after 48 hrs by sulforhodamine B assay; type: functional; conditions: COLO 205, 48 h, read-out: Activity
cells [2] = conditions: Homo sapiens, MOLT-4, 48 h; for CC50: read-out: LC50
NCI-H460 = assay: cells; conditions: Homo sapiens, NCI-H460, 48 h; for CC50: read-out: LC50
cells [3] = conditions: Homo sapiens, DU-145, 48 h; for CC50: read-out: LC50
[4] = Cytotoxicity against human HOP62 cells assessed as cell growth at 10^-5 M after 48 hrs by sulforhodamine B assay; type: functional; conditions: HOP-62, 48 h, read-out: Activity
cells [5] = conditions: Homo sapiens, SF-268, 48 h; for CC50: read-out: LC50
U-251 = assay: Cytotoxicity against human U251 cells assessed as cell growth at 10^-5 M after 48 hrs by sulforhodamine B assay; type: functional; conditions: U-251, 48 h, read-out: Activity
cells [6] = conditions: Homo sapiens, OVCAR-5, 48 h; for CC50: read-out: LC50
MCF7 = assay: cells; conditions: Homo sapiens, MCF7, 48 h
[7] = biological target: Dihydrofolate reductase (Homo sapiens) (UniProt P00374)
SK-MEL-2 = assay: Cytotoxicity against human SK-MEL-2 cells after 48 hrs by sulforhodamine B assay; type: functional; conditions: SK-MEL-2, 48 h
[8] = biological target: Dihydrofolate reductase (Homo sapiens) (UniProt P00374); conditions: 20 to 30 uM
[9] = Cytotoxicity against human BT549 cells after 48 hrs by sulforhodamine B assay; type: functional; conditions: BT-549, 48 h

Compound | GI50 (cells [2]) | TGI (cells [2]) | CC50 (cells [2]) | GI50 (NCI-H460) | TGI (NCI-H460) | CC50 (NCI-H460) | GI50 (cells [3]) | TGI (cells [3]) | CC50 (cells [3]) | GI50 (cells [5]) | TGI (cells [5]) | CC50 (cells [5]) | GI50 (cells [6]) | TGI (cells [6]) | CC50 (cells [6]) | GI50 (MCF7) | TGI (MCF7) | other results
COc1cc(/C=C2\C(=O)Nc3ccccc32)cc(OC)c1O | 3.8 µM | 93.3 µM | > 100 µM | 3 µM | 11.7 µM | 53.7 µM | 5.4 µM | 46.7 µM | > 100 µM | 4.3 µM | 28.8 µM | > 100 µM | 4.7 µM | 18.6 µM | 52.4 µM | 0.7 µM | 15.1 µM | growth at 10 µM [1]: 112%; growth at 10 µM [4]: 64.3%; growth at 10 µM (U-251): 47%; CC50 (MCF7; read-out: LC50): > 100 µM
O=C1Nc2ccccc2/C1=C/c1cn(CC(O)Cn2cc(/C=C3\C(=O)Nc4ccccc43)c3ccccc32)c2ccccc12 (stereo not given) | 2.5 µM | 7.4 µM | > 100 µM | 0.48 µM | 1.8 µM | 6.6 µM | 1.5 µM | 2.9 µM | 5.6 µM | 1.7 µM | 3.9 µM | 8.7 µM | 3.4 µM | 4.5 µM | 43.6 µM | 0.45 µM | 1.8 µM | Ka [7]: 1.38 ×10⁵ /M; GI50 (SK-MEL-2): 1.7 µM; TGI (SK-MEL-2): 3.4 µM; CC50 (SK-MEL-2; read-out: LC50 (the source's name)): 6.9 µM; inhibition [8]: Active; GI50 [9]: 1.7 µM; TGI [9]: 3.6 µM
